For data set [1], the system named is Escherichia coli ATCC 25922. The following applies: ATCC 25922. Put shortly: (§1)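 Broth microdilution; cation-adjusted MHII; inoculum ~5×10^5 CFU/mL from 0.5 McFarland saline suspension; peptide two-fold serial dilutions; polysorbate 80 0.002% final; peptide stock 1 mg/mL in water.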
Data set [2] concerns Escherichia coli MCR-1 Af 45. The following applies: MCR-1 Af 45. Put shortly:
as §1

The subject of data set [3] is Klebsiella pneumoniae SSI3010. The conditions noted are these: SSI3010. A digest of the protocol: as §1
Data set [4] has as its system human red blood cells (hRBC). The experiment in a line: Hemolysis of human red blood cells. It is filed as cell-based. The following applies: red cells of human, 1 h. Put shortly: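 PBS-washed human red blood cells (20% v/v) were incubated with peptide at 200 μg/mL for 1 h at 37 °C with shaking. Supernatant OD was read at 540 nm after 8-fold dilution. Hemolysis is expressed as percent of the water control.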

Peptide text beside a SMILES is read from it.

Consider `CC[C@H](C)[C@H](NC(=O)[C@@H]1C[C@@H](N)CN1C(=O)[C@@H](NC(=O)[C@@H]1CCCN1C(=O)[C@H](CCCCN)NC(=O)[C@@H](N)CCCCN)C(C)C)C(=O)N[C@@H](CCCNC(=N)N)C(=O)N[C@@H](Cc1ccc(O)cc1)C(=O)N[C@@H]1C(=O)N[C@@H](CC(N)=O)C(=O)N[C@@H](CCCNC(=N)N)C(=O)N[C@@H](CCN)C(=O)N[C@@H]([C@@H](C)O)C(=O)N[C@H](CCN)C(=O)N[C@@H](CCCCN)C(=O)N[C@H](C(=O)N[C@@H](CCN)C(=O)N[C@@H](CCCNC(=N)N)C(=O)N[C@@H](Cc2ccc(O)cc2)C(=O)O)CSSC1(C)C` [Example 115, Lys-Lys-Pro-Val-Pro((4R)NH2)-Ile-Arg-Tyr-Pen-Asn-Arg-^Dab-Thr-^DDab-Lys-Cys-Dab-Arg-Tyr] (HELM PEPTIDE1{K.K.P.V.[N[C@@H]1C[C@@H](C(=O)[*:2])N([*:1])C1].I.R.Y.[Pen].N.R.[Dab].T.[NCC[C@@H](N[*:1])C(=O)[*:2]].K.C.[Dab].R.Y}$PEPTIDE1,PEPTIDE1,9:R3-16:R3$$$V2.0), for which the “Escherichia coli ATCC 25922 MIC” value in data set [1] turned out to be 0.0625 µg/mL. In data set [2], the “Escherichia coli MCR-1 Af 45 MIC” value amounted to 0.125 µg/mL. The “Klebsiella pneumoniae SSI3010 MIC” value in data set [3] is 0.25 µg/mL. Besides, the “Hemolysis at 0.2 g/L” value in data set [4] turned out to be 0%.
The like results for `CC[C@H](C)[C@H](NC(=O)[C@@H](NC(=O)[C@@H]1C[C@@H](O)CN1C(=O)[C@@H](NC(=O)[C@@H]1C[C@@H](O)CN1C(=O)[C@H](CCCCN)NC(=O)[C@@H](N)CCCCN)C(C)C)[C@@H](C)CC)C(=O)N[C@@H](Cc1ccc(O)cc1)C(=O)N[C@@H]1C(=O)N[C@@H](CC(N)=O)C(=O)N[C@@H](CCCNC(=N)N)C(=O)N[C@@H](CCN)C(=O)N[C@@H]([C@@H](C)O)C(=O)N[C@H](CCN)C(=O)N[C@@H](CCCCN)C(=O)N[C@H](C(=O)N[C@@H](CCN)C(=O)N[C@@H](CCCNC(=N)N)C(=O)N[C@@H](Cc2ccc(O)cc2)C(=O)O)CSSC1(C)C` [Example 116, Lys-Lys-Hyp-Val-Hyp-Ile-Ile-Tyr-Pen-Asn-Arg-Dab-Thr-^DDab-Lys-Cys-Dab-Arg-Tyr] (HELM PEPTIDE1{K.K.[Hyp].V.[Hyp].I.I.Y.[Pen].N.R.[Dab].T.[NCC[C@@H](N[*:1])C(=O)[*:2]].K.C.[Dab].R.Y}$PEPTIDE1,PEPTIDE1,9:R3-16:R3$$$V2.0) were, in that order, 0.0625 µg/mL, 0.0625 µg/mL, 0.125 µg/mL and 0%.
On the same counts, the results for `CC[C@H](C)[C@H](NC(=O)[C@@H](NC(=O)[C@@H]1C[C@@H](O)CN1C(=O)[C@@H](NC(=O)[C@@H]1C[C@@H](O)CN1C(=O)[C@H](CCCCN)NC(=O)[C@@H](N)CCCCN)C(C)C)[C@@H](C)CC)C(=O)N[C@@H](Cc1ccc(O)cc1)C(=O)N[C@H]1CSSC[C@@H](C(=O)N[C@@H](CCN)C(=O)N[C@@H](CCCNC(=N)N)C(=O)N[C@@H](Cc2ccc(O)cc2)C(=O)O)NC(=O)[C@H](CCCCN)NC(=O)[C@@H](CCN)NC(=O)[C@H]([C@@H](C)O)NC(=O)[C@H](CCN)NC(=O)[C@H](CCCNC(=N)N)NC(=O)[C@H](CC(N)=O)NC1=O` [Example 117, Lys-Lys-Hyp-Val-Hyp-Ile-Ile-Tyr-Cys-Asn-Arg-Dab-Thr-^DDab-Lys-Cys-Dab-Arg-Tyr] (HELM PEPTIDE1{K.K.[Hyp].V.[Hyp].I.I.Y.C.N.R.[Dab].T.[NCC[C@@H](N[*:1])C(=O)[*:2]].K.C.[Dab].R.Y}$PEPTIDE1,PEPTIDE1,9:R3-16:R3$$$V2.0) are 0.03125 µg/mL, 0.0625 µg/mL, 0.125 µg/mL and 0%.
